# Experimental data reported in patent US20090325873A1, “HUMAN GLP-1 MIMETIBODIES, COMPOSITIONS, METHODS AND USES” (CENTOCOR, INC., priority 2006, published 2009).
# Where no end group is shown, it is not given here.
# Experiments:
# db/db mice = experiment: Blood glucose in db/db mice after intravenous dosing; assay type: in vivo; conditions: six week old db/db mice, 0.5-4 hours post-dosing, MMB dose 100-fold lower than peptide dose
# Experimental: Blood glucose was monitored 0.5, 1, 2, 3, and 4 hours post-dosing.
# female beagle dogs = experiment: Gastric emptying in normal dogs; assay type: in vivo; conditions: lidamidine 0.63 mg/kg sc 60 minutes before the meal; GLP-1 MMB 0.1 mg/kg iv 15 minutes before the meal
# Experimental: A gastric cannula was surgically implanted into female beagle dogs (10-15 kg) under general anesthesia and allowed to recover for at least 2 weeks. Dogs were fasted for 24 hours after which water was freely available. The gastric cannula was opened and gastric juice and food remnants were removed with 40-50 ml of lukewarm water. Groups of six dogs were dosed subcutaneously with lidamidine, an alpha2 agonist (0.63 mg/kg), 60 minutes before the meal, a positive control for delay of gastric emptying. […] Five minutes before the meal, the gastric cannula was opened to determine the amount of fluid present in stomach for baseline value and fluid was promptly reintroduced. Then a test meal consisting of 250 ml of a glucose solution (5 g/l) was administered via the cannula and allowed to remain in the stomach for 30 minutes. Gastric contents were drained from the stomach to measure total volume after 30 minutes. […] Glucose concentrations were evaluated for collected samples and used to determine the absolute amount of glucose remaining in the stomach at each time point. The percentage of glucose retained in the stomach was determined from the starting value and the concentration of glucose at each time point and plotted as a function of time. The time at which 50% of the gastric contents were retained was determined by fitting of the curves to a single exponential.
# [1] = administered subcutaneously; cited from earlier work
# RINm cells = experiment: Insulin secretion in RINm cells; assay type: cell-based; conditions: peptides 0-5 nM, mimetibodies 5 or 50 nM, ELISA
# Experimental: To test the effect of GLP-1 MMB in insulin secretion, RINm cells were treated with increasing concentrations of GLP-1 (7-36) peptide (0-5 nM), exendin-4 peptide (0-5 nM), or various GLP-1 mimetibodies (5 or 50 nM) and the amount of insulin secreted was measured via ELISA. All GLP-1 MMBs tested had activities in stimulating insulin secretion in RINm cells (FIG. 6).
# wild type mice [2] = experiment: Glucose tolerance test (ipGTT) in wild type mice; assay type: in vivo; conditions: single iv GLP-1 MMB 1 mg/kg, exendin-4 0.07 mg/kg
# GLP-1R−/− mice [3] = experiment: Gastric emptying in GLP-1R−/− mice; assay type: in vivo; conditions: iv GLP-1 MMB 1 mg/kg, exendin-4 0.07 mg/kg
# Experimental: (§1) Materials/Methods: Animals: Male GLP-1R−/− and age matched wild type mice were randomized into three treatment groups (n=5) based on body weight and fasting blood glucose. […] The next morning mice were re-fed for 1 h, food intake was recorded and the mice were deprived of food for the rest of the study. Mice were dosed intravenously as discussed above. Two hours post-dosing mice were euthanized. The stomach was exposed by laparotomy, ligated at both the pylorus and cardia and removed. The stomach content wet weight was measured. Equation 1 was used to calculate the percent of food remaining in the stomach.
# (§2) (Stomach Content Wet Weight(g)/Food Intake(g))*100 Equation (1)
# wild type mice [4] = experiment: Food intake in wild type mice; assay type: in vivo; conditions: single iv GLP-1 MMB 1 mg/kg, exendin-4 0.07 mg/kg
# GLP-1R−/− mice [5] = experiment: Food intake in GLP-1R−/− mice; assay type: in vivo; conditions: single iv GLP-1 MMB 1 mg/kg, exendin-4 0.07 mg/kg
# wild type mice [6] = experiment: Gastric emptying in wild type mice; assay type: in vivo; conditions: iv GLP-1 MMB 1 mg/kg, exendin-4 0.07 mg/kg
# Experimental: as §1, §2
compound,measurement,setting,value
CC[C@H](C)[C@H](NC(=O)[C@H](Cc1ccccc1)NC(=O)[C@H](CCC(=O)O)NC(=O)[C@H](CCCCN)NC(=O)[C@H](C)NC(=O)[C@H](C)NC(=O)[C@H](CCC(N)=O)NC(=O)CNC(=O)[C@H](CCC(=O)O)NC(=O)[C@H](CC(C)C)NC(=O)[C@H](Cc1ccc(O)cc1)NC(=O)[C@H](CO)NC(=O)[C@H](CO)NC(=O)[C@@H](NC(=O)[C@H](CC(=O)O)NC(=O)[C@H](CO)NC(=O)[C@@H](NC(=O)[C@H](Cc1ccccc1)NC(=O)[C@@H](NC(=O)CNC(=O)[C@H](CCC(=O)O)NC(=O)[C@H](C)NC(=O)[C@@H](N)Cc1c[nH]cn1)[C@@H](C)O)[C@@H](C)O)C(C)C)C(=O)N[C@@H](C)C(=O)N[C@@H](Cc1c[nH]c2ccccc12)C(=O)N[C@@H](CC(C)C)C(=O)N[C@H](C(=O)N[C@@H](CCCCN)C(=O)NCC(=O)N[C@@H](CCCNC(=N)N)C(N)=O)C(C)C [GLP-1 peptide],blood glucose,db/db mice,lowered blood glucose at 30 minutes
CN=C(N)NC(=O)Nc1c(C)cccc1C [lidamidine],time in which 50% of the gastric contents were emptied,female beagle dogs,30.60 ± 6.47 min
GLP-1 (7-36) amide: GLP-1 (7-36) amide,time action,[1],about 50 minutes
"GLP-1 (7-36) peptide: wide-type GLP-1 (7-36) peptide (HAEGTFTSDVSSYLEGQAAKEFIAWLVKGR; ends and bridges not checked; UniProt P01275 98-127, looked up)",stimulation of insulin secretion in RINm cells,RINm cells,stimulates insulin release
exendin-4 [reference compound],area under the curve (AUC) of the ipGTT,wild type mice [2],statistically significant reduction in the AUC
same,gastric emptying 2 h after dosing,GLP-1R−/− mice [3],no effect on gastric emptying
same,24 hour cumulative food intake vs CNTO1996,wild type mice [4],statistically significant reduction in food intake
same,24 hour cumulative food intake,GLP-1R−/− mice [5],no effect on food intake
same,stimulation of insulin secretion in RINm cells,RINm cells,stimulates insulin release
same,stomach content (percent of food remaining) 2 h after dosing vs CNTO1996,wild type mice [6],statistically significant increase in stomach content
